{
  "source": "PubChem BioAssay (NCI)",
  "assay_in_all_cases": "NCI tumour cell line growth inhibition, 48 h",
  "key": {"UACC-62 melanoma": {"test_system": "UACC-62 melanoma"}, "U251 CNS": {"test_system": "U251 CNS"}, "DU-145 prostate": {"test_system": "DU-145 prostate"}, "PC-3 prostate": {"test_system": "PC-3 prostate"}, "SK-MEL-5 melanoma": {"test_system": "SK-MEL-5 melanoma"}, "RXF 393 renal": {"test_system": "RXF 393 renal"}, "SK-MEL-28 melanoma": {"test_system": "SK-MEL-28 melanoma"}, "A549 NSCLC": {"test_system": "A549 NSCLC"}, "HCC-2998 colon": {"test_system": "HCC-2998 colon"}, "OVCAR-4 ovarian": {"test_system": "OVCAR-4 ovarian"}, "MALME-3M melanoma": {"test_system": "MALME-3M melanoma"}, "SN12C renal": {"test_system": "SN12C renal"}, "HS 578T breast": {"test_system": "HS 578T breast"}, "SF-295 CNS": {"test_system": "SF-295 CNS"}, "UO-31 renal": {"test_system": "UO-31 renal"}, "IGROV1 ovarian": {"test_system": "IGROV1 ovarian"}, "T-47D breast": {"test_system": "T-47D breast"}, "MDA-MB-435": {"test_system": "MDA-MB-435"}, "HOP-62 NSCLC": {"test_system": "HOP-62 NSCLC"}, "NCI-H226 lung": {"test_system": "NCI-H226 lung"}, "MDA-MB-231 breast": {"test_system": "MDA-MB-231 breast"}, "BT-549 breast": {"test_system": "BT-549 breast"}, "SNB-19 CNS": {"test_system": "SNB-19 CNS"}, "HCT-116 colon": {"test_system": "HCT-116 colon"}, "HT29 colon": {"test_system": "HT29 colon"}, "SW-620 colon": {"test_system": "SW-620 colon"}, "CAKI-1 renal": {"test_system": "CAKI-1 renal"}, "NCI/ADR-RES ovarian": {"test_system": "NCI/ADR-RES ovarian"}, "NCI-H460 lung": {"test_system": "NCI-H460 lung"}, "LOX IMVI melanoma": {"test_system": "LOX IMVI melanoma"}, "COLO 205 colon": {"test_system": "COLO 205 colon"}, "NCI-H23 lung": {"test_system": "NCI-H23 lung"}, "786-0 renal": {"test_system": "786-0 renal"}, "SK-MEL-2 melanoma": {"test_system": "SK-MEL-2 melanoma"}, "M14 melanoma": {"test_system": "M14 melanoma"}, "UACC-257 melanoma": {"test_system": "UACC-257 melanoma"}, "HL-60(TB) leukemia": {"test_system": "HL-60(TB) leukemia"}, "A498 renal": {"test_system": "A498 renal"}, "SNB-75 CNS": {"test_system": "SNB-75 CNS"}, "EKVX NSCLC": {"test_system": "EKVX NSCLC"}, "MCF7 breast": {"test_system": "MCF7 breast"}, "SK-OV-3 ovarian": {"test_system": "SK-OV-3 ovarian"}, "TK-10 renal": {"test_system": "TK-10 renal"}},
  "note": "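48-hour exposure; five concentrations; linearly interpolated endpoints. GI50 is the concentration that inhibits growth by half. TGI marks complete inhibition of growth.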",
  "data": [
    {"smiles": "C=CC[N+]1(CCO)CCN=C1CCCCCCCCCCCCC", "note": "(stereo unspecified)", "values": [
      {"measurement": "GI50", "setting": "UACC-62 melanoma", "value": 1820, "unit": "nM"},
      {"measurement": "TGI", "setting": "UACC-62 melanoma", "value": 3.52, "unit": "µM"},
      {"measurement": "GI50", "setting": "U251 CNS", "value": 1330, "unit": "nM"},
      {"measurement": "TGI", "setting": "U251 CNS", "value": 2600, "unit": "nM"},
      {"measurement": "GI50", "setting": "DU-145 prostate", "value": 1600, "unit": "nM"},
      {"measurement": "TGI", "setting": "DU-145 prostate", "value": 2950, "unit": "nM"},
      {"measurement": "GI50", "setting": "PC-3 prostate", "value": 1370, "unit": "nM"},
      {"measurement": "TGI", "setting": "PC-3 prostate", "value": 2850, "unit": "nM"},
      {"measurement": "GI50", "setting": "SK-MEL-5 melanoma", "value": 1600, "unit": "nM"},
      {"measurement": "TGI", "setting": "SK-MEL-5 melanoma", "value": 2950, "unit": "nM"},
      {"measurement": "GI50", "setting": "RXF 393 renal", "value": 1440, "unit": "nM"},
      {"measurement": "TGI", "setting": "RXF 393 renal", "value": 2810, "unit": "nM"},
      {"measurement": "GI50", "setting": "SK-MEL-28 melanoma", "value": 1750, "unit": "nM"},
      {"measurement": "TGI", "setting": "SK-MEL-28 melanoma", "value": 3.12, "unit": "µM"},
      {"measurement": "GI50", "setting": "A549 NSCLC", "value": 1830, "unit": "nM"},
      {"measurement": "TGI", "setting": "A549 NSCLC", "value": 3.3, "unit": "µM"},
      {"measurement": "GI50", "setting": "HCC-2998 colon", "value": 1370, "unit": "nM"},
      {"measurement": "TGI", "setting": "HCC-2998 colon", "value": 2660, "unit": "nM"},
      {"measurement": "GI50", "setting": "OVCAR-4 ovarian", "value": 1670, "unit": "nM"},
      {"measurement": "TGI", "setting": "OVCAR-4 ovarian", "value": 3.45, "unit": "µM"},
      {"measurement": "GI50", "setting": "MALME-3M melanoma", "value": 1600, "unit": "nM"},
      {"measurement": "TGI", "setting": "MALME-3M melanoma", "value": 3.18, "unit": "µM"},
      {"measurement": "GI50", "setting": "SN12C renal", "value": 1460, "unit": "nM"},
      {"measurement": "TGI", "setting": "SN12C renal", "value": 2850, "unit": "nM"},
      {"measurement": "GI50", "setting": "HS 578T breast", "value": 1580, "unit": "nM"},
      {"measurement": "TGI", "setting": "HS 578T breast", "value": 3.76, "unit": "µM"},
      {"measurement": "GI50", "setting": "SF-295 CNS", "value": 1810, "unit": "nM"},
      {"measurement": "TGI", "setting": "SF-295 CNS", "value": 3.3, "unit": "µM"},
      {"measurement": "GI50", "setting": "UO-31 renal", "value": 1180, "unit": "nM"},
      {"measurement": "TGI", "setting": "UO-31 renal", "value": 2570, "unit": "nM"},
      {"measurement": "GI50", "setting": "IGROV1 ovarian", "value": 288, "unit": "nM"},
      {"measurement": "TGI", "setting": "IGROV1 ovarian", "value": 1250, "unit": "nM"},
      {"measurement": "GI50", "setting": "T-47D breast", "value": 1650, "unit": "nM"},
      {"measurement": "TGI", "setting": "T-47D breast", "value": 3.47, "unit": "µM"},
      {"measurement": "GI50", "setting": "MDA-MB-435", "value": 1720, "unit": "nM"},
      {"measurement": "TGI", "setting": "MDA-MB-435", "value": 3.09, "unit": "µM"},
      {"measurement": "GI50", "setting": "HOP-62 NSCLC", "value": 1720, "unit": "nM"},
      {"measurement": "TGI", "setting": "HOP-62 NSCLC", "value": 3.09, "unit": "µM"},
      {"measurement": "GI50", "setting": "NCI-H226 lung", "value": 1700, "unit": "nM"},
      {"measurement": "TGI", "setting": "NCI-H226 lung", "value": 3.43, "unit": "µM"},
      {"measurement": "GI50", "setting": "MDA-MB-231 breast", "value": 1610, "unit": "nM"},
      {"measurement": "TGI", "setting": "MDA-MB-231 breast", "value": 3.1, "unit": "µM"},
      {"measurement": "GI50", "setting": "BT-549 breast", "value": 1760, "unit": "nM"},
      {"measurement": "TGI", "setting": "BT-549 breast", "value": 3.24, "unit": "µM"},
      {"measurement": "GI50", "setting": "SNB-19 CNS", "value": 1630, "unit": "nM"},
      {"measurement": "TGI", "setting": "SNB-19 CNS", "value": 2990, "unit": "nM"},
      {"measurement": "GI50", "setting": "HCT-116 colon", "value": 1400, "unit": "nM"},
      {"measurement": "TGI", "setting": "HCT-116 colon", "value": 2690, "unit": "nM"},
      {"measurement": "GI50", "setting": "HT29 colon", "value": 1300, "unit": "nM"},
      {"measurement": "TGI", "setting": "HT29 colon", "value": 2560, "unit": "nM"},
      {"measurement": "GI50", "setting": "SW-620 colon", "value": 1630, "unit": "nM"},
      {"measurement": "TGI", "setting": "SW-620 colon", "value": 2980, "unit": "nM"},
      {"measurement": "GI50", "setting": "CAKI-1 renal", "value": 1650, "unit": "nM"},
      {"measurement": "TGI", "setting": "CAKI-1 renal", "value": 3.15, "unit": "µM"},
      {"measurement": "GI50", "setting": "NCI/ADR-RES ovarian", "value": 1650, "unit": "nM"},
      {"measurement": "TGI", "setting": "NCI/ADR-RES ovarian", "value": 3.01, "unit": "µM"},
      {"measurement": "GI50", "setting": "NCI-H460 lung", "value": 1700, "unit": "nM"},
      {"measurement": "TGI", "setting": "NCI-H460 lung", "value": 3.06, "unit": "µM"},
      {"measurement": "GI50", "setting": "LOX IMVI melanoma", "value": 1380, "unit": "nM"},
      {"measurement": "TGI", "setting": "LOX IMVI melanoma", "value": 2680, "unit": "nM"},
      {"measurement": "GI50", "setting": "COLO 205 colon", "value": 1700, "unit": "nM"},
      {"measurement": "TGI", "setting": "COLO 205 colon", "value": 3.08, "unit": "µM"},
      {"measurement": "GI50", "setting": "NCI-H23 lung", "value": 1500, "unit": "nM"},
      {"measurement": "TGI", "setting": "NCI-H23 lung", "value": 2820, "unit": "nM"},
      {"measurement": "GI50", "setting": "786-0 renal", "value": 1650, "unit": "nM"},
      {"measurement": "TGI", "setting": "786-0 renal", "value": 3.01, "unit": "µM"},
      {"measurement": "GI50", "setting": "SK-MEL-2 melanoma", "value": 2040, "unit": "nM"},
      {"measurement": "TGI", "setting": "SK-MEL-2 melanoma", "value": 3.69, "unit": "µM"},
      {"measurement": "GI50", "setting": "M14 melanoma", "value": 1640, "unit": "nM"},
      {"measurement": "TGI", "setting": "M14 melanoma", "value": 2990, "unit": "nM"},
      {"measurement": "GI50", "setting": "UACC-257 melanoma", "value": 1760, "unit": "nM"},
      {"measurement": "TGI", "setting": "UACC-257 melanoma", "value": 3.27, "unit": "µM"},
      {"measurement": "GI50", "setting": "HL-60(TB) leukemia", "value": 1510, "unit": "nM"},
      {"measurement": "TGI", "setting": "HL-60(TB) leukemia", "value": 3.1, "unit": "µM"},
      {"measurement": "GI50", "setting": "A498 renal", "value": 2090, "unit": "nM"},
      {"measurement": "TGI", "setting": "A498 renal", "value": 8.26, "unit": "µM"},
      {"measurement": "GI50", "setting": "SNB-75 CNS", "value": 1560, "unit": "nM"},
      {"measurement": "TGI", "setting": "SNB-75 CNS", "value": 2900, "unit": "nM"},
      {"measurement": "GI50", "setting": "EKVX NSCLC", "value": 1620, "unit": "nM"},
      {"measurement": "TGI", "setting": "EKVX NSCLC", "value": 2970, "unit": "nM"},
      {"measurement": "GI50", "setting": "MCF7 breast", "value": 1500, "unit": "nM"},
      {"measurement": "TGI", "setting": "MCF7 breast", "value": 2820, "unit": "nM"},
      {"measurement": "GI50", "setting": "SK-OV-3 ovarian", "value": 1730, "unit": "nM"},
      {"measurement": "TGI", "setting": "SK-OV-3 ovarian", "value": 3.14, "unit": "µM"},
      {"measurement": "GI50", "setting": "TK-10 renal", "value": 1990, "unit": "nM"},
      {"measurement": "TGI", "setting": "TK-10 renal", "value": 3.4, "unit": "µM"}
    ]}
  ]
}
